Drawing on patent US20240109900A1, “AZABICYCLIC SHP2 INHIBITORS” (IRBM S.P.A., priority 2021, published 2024), this text covers IC50 for 22 compounds.

Test [1] deals with SHP-2 enzyme (Met1-Leu525) (Homo sapiens (Human), UniProt Q06124). The experiment in a line: SHP2 inhibition enzymatic assay. In kind it is biochemical. Particulars: 75 μM DiFMUP substrate. An outline of the steps: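 SHP-2 (Met1-Leu525), 0.5 nM, activated with 500 nM IRS1 bis-phosphopeptide, preincubated 30 min with compounds in HEPES pH 7.2 buffer with 5 mM DTT. 75 μM DiFMUP added for 30 min at room temperature, stopped with bpV; fluorescence read. IC50 from four-parameter logistic fit of % inhibition.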
SHP-2 enzyme (Met1-Leu525), sequence (Q06124 1-525): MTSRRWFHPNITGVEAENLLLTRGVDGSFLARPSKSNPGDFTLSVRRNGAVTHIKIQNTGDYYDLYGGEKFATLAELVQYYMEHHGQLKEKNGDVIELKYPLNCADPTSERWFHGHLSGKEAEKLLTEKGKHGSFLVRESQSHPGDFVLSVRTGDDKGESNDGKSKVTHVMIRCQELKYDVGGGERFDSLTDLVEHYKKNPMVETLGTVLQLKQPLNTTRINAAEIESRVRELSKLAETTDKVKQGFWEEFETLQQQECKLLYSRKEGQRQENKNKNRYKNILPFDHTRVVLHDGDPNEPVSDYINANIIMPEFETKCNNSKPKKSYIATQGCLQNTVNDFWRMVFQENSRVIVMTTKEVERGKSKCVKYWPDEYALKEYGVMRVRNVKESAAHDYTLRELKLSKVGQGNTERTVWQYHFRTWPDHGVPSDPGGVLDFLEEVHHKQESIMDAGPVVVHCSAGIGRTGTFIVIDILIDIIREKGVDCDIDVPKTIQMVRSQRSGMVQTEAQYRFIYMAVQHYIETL

Test [2] deals with ERK phosphorylation in KYSE-520 cells. The test can be described thus: Phospho-ERK cellular assay. The note with it: read-out: PERK IC50. In kind it is cell-based. The procedure, abridged: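 TR-FRET read-out of ERK1/2 Thr202/Tyr204 phosphorylation was taken after overnight antibody incubation at room temperature. Before that, KYSE-520 cells were treated 2 h at 37 °C with compound dilutions and lysed 30 min. Percent inhibition relative to vehicle and cell-free wells was fitted four-parametrically to give IC50.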

The mark [3] stands for this setting: 0.5 nM SHP-2 activated by 500 nM IRS1 peptide, read-out: SHP2wt-IC50.
Setting [4] is: Homo sapiens, KYSE-520, 2 h, KYSE-520 cells, 2 h at 37° C., phospho-ERK1/2 (Thr202/Tyr204) TR-FRET.
The mark [5] stands for this setting: KYSE-520 cells, 2 h at 37° C., phospho-ERK1/2 (Thr202/Tyr204) TR-FRET.

Molecules are shown by their SMILES. pIC50: −log10 of the molar value. Like-named read-outs stand apart in the source and are kept apart here.

As usually defined, the pIC50 is the negative decadic logarithm of the IC50, by convention in mol/L. Take `Cn1cc2c(Cl)c(-c3n[nH]c4nc(N5C[C@@H]6[C@H](C5)[C@@]6(CN)c5ccccc5)cnc34)ccc2n1` [Example 453, ((1R,5S,6s)-3-(3-(4-chloro-2-methyl-2H-indazol-5-yl)-1H-pyrazolo[3,4-b]pyrazin-6-yl)-6-phenyl-3-azabicyclo[3.1.0]hexan-6-yl)methanamine]: the pIC50 in test [1] (setting [3]) was greater than 6.30; in test [2] (setting [4]), greater than 6.00.
Consider `Cc1csc([C@@]2(CN)[C@@H]3CN(c4cnc5c(-c6ccc7n[nH]cc7c6Cl)n[nH]c5n4)C[C@@H]32)n1` [Example 505], for which the pIC50 was greater than 6.30 in test [1] (setting [3]) and greater than 6.00 in test [2] (setting [5]).
`NC[C@]1(c2ccccc2F)[C@@H]2CCN(c3cnc4c(-c5ccc6cccnc6c5)n[nH]c4n3)C[C@@H]21` [Example 252, ((1S,6R,7R)-7-(2-fluorophenyl)-3-(3-(quinolin-7-yl)-1H-pyrazolo[3,4-b]pyrazin-6-yl)-3-azabicyclo[4.1.0]heptan-7-yl)methanamine]: the pIC50 in test [1] (setting [3]) was greater than 6.30; in test [2] (setting [4]), greater than 6.00.
Taken in the same sequence, the figures for `NC[C@]1(c2ccccc2F)[C@@H]2CCN(c3cnc4c(-c5ccnc(N)n5)n[nH]c4n3)C[C@@H]21` [Example 163, 4-(6-((1S,6R,7R)-7-(aminomethyl)-7-(2-fluorophenyl)-3-azabicyclo[4.1.0]heptan-3-yl)-1H-pyrazolo[3,4-b]pyrazin-3-yl)pyrimidin-2-amine] were greater than 6.30 and greater than 6.00.
For `NC[C@]1(c2ccccc2F)[C@@H]2CCN(c3cnc4c(-c5cc(F)c(O)cc5F)n[nH]c4n3)C[C@@H]21` [Example 354, 4-(6-((1S,6R,7R)-7-(aminomethyl)-7-(2-fluorophenyl)-3-azabicyclo[4.1.0]heptan-3-yl)-1H-pyrazolo[3,4-b]pyrazin-3-yl)-2,5-difluorophenol], in that order: greater than 6.30 and greater than 6.00.
For `CNC[C@]1(c2nc(C)cs2)[C@@H]2CN(c3cnc4c(-c5ccc6nn(C)cc6c5Cl)n[nH]c4n3)C[C@@H]21` [Example 484, 1-((1R,5S,6r)-3-(3-(4-chloro-2-methyl-2H-indazol-5-yl)-1H-pyrazolo[3,4-b]pyrazin-6-yl)-6-(4-methylthiazol-2-yl)-3-azabicyclo[3.1.0]hexan-6-yl)-N-methylmethanamine], in that order: greater than 6.30 and greater than 6.00.
On to `Cn1cc2c(Cl)c(-c3n[nH]c4nc(N5CCC6C(C5)C6(CN)c5cc(CO)on5)cnc34)ccc2n1` (centres unmarked) [Example 61, (3-(7-(aminomethyl)-3-(3-(4-chloro-2-methyl-2H-indazol-5-yl)-1H-pyrazolo[3,4-b]pyrazin-6-yl)-3-azabicyclo[4.1.0]heptan-7-yl)isoxazol-5-yl)methanol], for which the pIC50 in test [1] (setting [3]) is greater than 6.30; in test [2] (setting [4]) it was greater than 6.00.
For `NC[C@]1(c2ccccc2F)[C@@H]2CCN(c3cnc4c(-c5ccnc(-c6cncnc6)c5Cl)n[nH]c4n3)C[C@@H]21` [Example 284, ((1S,6R,7R)-3-(3-(3-chloro-2-(pyrimidin-5-yl)pyridin-4-yl)-1H-pyrazolo[3,4-b]pyrazin-6-yl)-7-(2-fluorophenyl)-3-azabicyclo[4.1.0]heptan-7-yl)methanamine], in that order: greater than 6.30 and greater than 6.00.
Take `Cc1csc([C@@]2(CN)[C@@H]3CN(c4cnc(Sc5ccnc(N)c5Cl)c(N)n4)C[C@@H]32)n1` [Example 434, 3-((2-amino-3-chloropyridin-4-yl)thio)-6-((1R,5S,6r)-6-(aminomethyl)-6-(4-methylthiazol-2-yl)-3-azabicyclo[3.1.0]hexan-3-yl)pyrazin-2-amine]: the pIC50 was greater than 6.30 in test [1] (setting [3]) and greater than 6.00 in test [2] (setting [5]).
Take `NCC1(c2ccsc2)C2CCN(c3cnc4c(-c5ccnc(C(F)(F)F)c5)n[nH]c4n3)CC21` (centres unmarked) [Example 95, (7-(thiophen-3-yl)-3-(3-(2-(trifluoromethyl)pyridin-4-yl)-1H-pyrazolo[3,4-b]pyrazin-6-yl)-3-azabicyclo[4.1.0]heptan-7-yl)methanamine]: the values for the pIC50 in test [1] (setting [3]) and in test [2] (setting [4]) were greater than 6.30 and 5.30 to 6.00, respectively.
For `NCC1(c2ccccc2)C2CCN(c3cnc(Sc4cccnc4C(F)(F)F)c(N)n3)CC21` (centres unmarked) [Example 71, 6-(7-(aminomethyl)-7-phenyl-3-azabicyclo[4.1.0]heptan-3-yl)-3-((2-(trifluoromethyl)pyridin-3-yl)thio)pyrazin-2-amine], in that order: greater than 6.30 and less than 5.30.
For `NC[C@]1(c2ccccc2F)[C@@H]2CCN(c3cnc4c(-c5ccc6c(c5)NC(=O)C6)n[nH]c4n3)C[C@@H]21` [Example 233, 6-(6-((1S,6R,7R)-7-(aminomethyl)-7-(2-fluorophenyl)-3-azabicyclo[4.1.0]heptan-3-yl)-1H-pyrazolo[3,4-b]pyrazin-3-yl)indolin-2-one], in that order: greater than 6.30 and greater than 6.00.
For `NC[C@]1(c2ccccc2Cl)[C@@H]2CCN(c3cnc4c(-c5ccnc(N)c5Cl)n[nH]c4n3)C[C@@H]21` [Example 181, 4-(6-((1S,6R,7R)-7-(aminomethyl)-7-(2-chlorophenyl)-3-azabicyclo[4.1.0]heptan-3-yl)-1H-pyrazolo[3,4-b]pyrazin-3-yl)-3-chloropyridin-2-amine], in that order: greater than 6.30 and greater than 6.00.
Take `NC[C@]1(c2ccccc2F)[C@@H]2CCN(c3cnc4nc(N5CCCc6ncccc65)ccc4n3)C[C@@H]21` [Example 406, ((1S,6R,7R)-3-(6-(3,4-dihydro-1,5-naphthyridin-1(2H)-yl)pyrido[2,3-b]pyrazin-2-yl)-7-(2-fluorophenyl)-3-azabicyclo[4.1.0]heptan-7-yl)methanamine]: the pIC50 was greater than 6.30 in test [1] (setting [3]) and greater than 6.00 in test [2] (setting [4]).
As for `Cc1cc(C2(CN)C3CCN(c4cnc5c(Sc6ccnc(N)c6Cl)n[nH]c5n4)CC32)no1` (centres unmarked) [Example 53, 4-((6-(7-(aminomethyl)-7-(5-methylisoxazol-3-yl)-3-azabicyclo[4.1.0]heptan-3-yl)-1H-pyrazolo[3,4-b]pyrazin-3-yl)thio)-3-chloropyridin-2-amine], the negative-log IC50 (pIC50) in test [1] (setting [3]) is greater than 6.30; in test [2] (setting [4]), greater than 6.00.
For `NC[C@]1(c2ccccc2F)[C@@H]2CCN(c3cnc4c(-c5ccc6cnccc6c5)n[nH]c4n3)C[C@@H]21` [Example 247, ((1S,6R,7R)-7-(2-fluorophenyl)-3-(3-(isoquinolin-6-yl)-1H-pyrazolo[3,4-b]pyrazin-6-yl)-3-azabicyclo[4.1.0]heptan-7-yl)methanamine], in that order: greater than 6.30 and greater than 6.00.
On to `Cn1ccc2c(-c3n[nH]c4nc(N5CC[C@@H]6[C@H](C5)[C@@]6(CN)c5ccccc5F)cnc34)cccc2c1=O` [Example 274, 5-(6-((1S,6R,7R)-7-(aminomethyl)-7-(2-fluorophenyl)-3-azabicyclo[4.1.0]heptan-3-yl)-1H-pyrazolo[3,4-b]pyrazin-3-yl)-2-methylisoquinolin-1(2H)-one], for which the pIC50 in test [1] (setting [3]) is greater than 6.30; in test [2] (setting [4]) it was greater than 6.00.
For `NC[C@]1(c2ccccc2F)[C@@H]2CCN(c3cnc4c(-c5ccn6nccc6c5)n[nH]c4n3)C[C@@H]21` [Example 136, ((1S,6R,7R)-7-(2-fluorophenyl)-3-(3-(pyrazolo[1,5-a]pyridin-5-yl)-1H-pyrazolo[3,4-b]pyrazin-6-yl)-3-azabicyclo[4.1.0]heptan-7-yl)methanamine], in that order: greater than 6.30 and greater than 6.00.
For `Cc1csc(C2(CN)C3CCN(c4cnc5c(-c6cccc7c6OCO7)n[nH]c5n4)CC32)n1` (centres unmarked) [Example 91, (3-(3-(Benzo[d][1,3]dioxol-4-yl)-1H-pyrazolo[3,4-b]pyrazin-6-yl)-7-(4-methylthiazol-2-yl)-3-azabicyclo[4.1.0]heptan-7-yl)methanamine], in that order: greater than 6.30 and greater than 6.00.
Taken in the same sequence, the figures for `NC[C@]1(c2ccccc2F)[C@@H]2CCN(c3cnc(Sc4ccnc5ccccc45)c(N)n3)C[C@@H]21` [Example 524, 6-((1S,6R,7R)-7-(aminomethyl)-7-(2-fluorophenyl)-3-azabicyclo[4.1.0]heptan-3-yl)-3-(quinolin-4-ylthio)pyrazin-2-amine] were greater than 6.30 and less than 5.30.
As for `NC[C@]1(c2ccccc2F)[C@@H]2CCN(c3cnc4c(-c5ccc(OS(=O)(=O)F)c6ncccc56)n[nH]c4n3)C[C@@H]21` [Example 449, 5-(6-((1S,6R,7R)-7-(aminomethyl)-7-(2-fluorophenyl)-3-azabicyclo[4.1.0]heptan-3-yl)-1H-pyrazolo[3,4-b]pyrazin-3-yl)quinolin-8-yl sulfurofluoridate], the pIC50 in test [1] (SHP2wt-IC50, 0.5 nM SHP-2 activated by 500 nM IRS1 peptide) was greater than 6.30; in test [2] (Homo sapiens, KYSE-520, 2 h), greater than 6.00.
Consider `Cc1cc(C2(CN)C3CCN(c4cnc5c(-c6ccnc(N)c6Cl)n[nH]c5n4)CC32)no1` (centres unmarked) [Example 36, 4-(6-(7-(aminomethyl)-7-(5-methylisoxazol-3-yl)-3-azabicyclo[4.1.0]heptan-3-yl)-1H-pyrazolo[3,4-b]pyrazin-3-yl)-3-chloropyridin-2-amine], for which the figures for the pIC50 in test [1] (setting [3]) and in test [2] (setting [4]) were greater than 6.30 and greater than 6.00, respectively.
